Measured values taken from patent publication US9815815B2, “Non-selective kinase inhibitors” (GILEAD SCIENCES, INC., priority 2013, dated 2017).

What was measured:
rat MCT+PN model = experiment: Telemetry study of PA pressure in the rat MCT+PN model; format: in vivo; details: for PA systolic pressure: imatinib telemetry study (study 4), 8 min 3x/day
Description: Efficacy study in the rat MCT+PN model. Pneumonectomy and implantation of a TRM53P telemetry monitor in the pulmonary artery (Telemetry Research, New Zealand and ADlnstruments, Colorado) was carried out in rats. Two weeks after MCT, PK10453 (Structure 2) was administered three times daily for 1 week. […] Sampling of PA pressure was performed 5 min before each morning dose in ambulatory animals in room air (estimated atmospheric pressure 716 mm Hg based on elevation of animal facility). […] Telemetry data was obtained for 10 min daily before each morning dose for this protocol.

[1] = tested on: PDGFAA stimulated phosphorylation of ERK1 and ERK2; experiment: PDGFAA stimulated phosphorylation of ERK1 and ERK2 in human fetal lung fibroblasts; format: cell-based; details: 1 uM
[2] = tested on: PDGFBB stimulated phosphorylation of ERK1 and ERK2; experiment: PDGFBB stimulated phosphorylation of ERK1 and ERK2 in human fetal lung fibroblasts; format: cell-based; details: for PDGFBB stimulated ppERK1 formation: 1 uM
[3] = tested on: PDGFBB stimulated AKT phosphorylation (SER473); details: 5 μM; PDGFRβ null and PDGFRα null cell lines; cited from earlier work
AKT phosphorylation = details: 0.1 μM; PASMC from control and monocrotaline treated rats; cited from earlier work
[4] = tested on: PDGFBB stimulated AKT phosphorylation; experiment: In cell Western (ICW), PDGFBB stimulated AKT phosphorylation in human fetal lung fibroblasts; format: cell-based; details: comparison in words
Description: In cell Western (ICW). […] HLFs were maintained in subculture at no more than 6 passages in DMEM with 5% FBS and 4 mM Glutamax at 37° C., 5% CO2. HLFs were plated and grown to 70-80% confluence in 96 well plates then serum-starved for 48 hours. […] Antibodies were detected using IRDye 680LT goat anti-mouse IgG and IRDye 800W goat a-rabbit IgG conjugated antibodies. After washing, the signal was quantified using an Odyssey Infrared Imaging System (LI-COR). Phosphoprotein signal (800 nm) was normalized to total protein signal (700 nm) acquired from each well and experimental duplicates on same plate were averaged and reported.

Description for rat MCT model: At the end of the study RVSP pressure was measured; lung and heart fixed in formalin. For measurement of RVSP animals were sedated with isoflurane, intubated via a tracheostomy, and ventilated with a TOPOVENT pressure regulated ventilator (peak inspiratory pressure 18 cm H2O, PEEP 5 cm). After sternotomy, a Scisense high fidelity catheter inserted via the RV apex.
Histology and morphometric analysis. At the end of the study, the heart and lungs were removed from ventilated animals under general anesthesia. Heparinized saline was infused under pressure through the main pulmonary artery. […] The heart was removed, and the RV free wall, interventricular septum and LV free wall dissected and weighed. Buffered formalin (10%) was infused under pressure both through the pulmonary artery and the trachea. Morphometric analysis was performed on H&E stained formalin fixed tissue sectioned at 8 μm. The media area and lumen area of pulmonary arterioles were measured with Image J software by a technician blinded to treatment group. Measurements were made on 20 pulmonary arterioles per section. The ratio of the lumen area to the total media area was determined This ratio normalizes the variation in total pulmonary arteriole area. […] Briefly, pre-capillary arterioles were assigned grade 0 for no evidence of neointimal lesions, grade 1 for less than 50% luminal occlusion, and grade 2 for greater than 50% occlusion.

Structure (SMILES): Cc1ccc(NC(=O)c2ccc(CN3CCN(C)CC3)cc2)cc1Nc1nccc(-c2cccnc2)n1 [Imatinib]
- efficacy in the MCT+PN model, in words (rat MCT+PN model; by inhalation): not effective
- PA systolic pressure (rat MCT+PN model; day 1): 41.5±3.5 mm Hg
- PA systolic pressure (rat MCT+PN model; treatment day 9): 75.1±7 mm Hg
- decreasing PDGF AA stimulated ppERK1 and ppERK2 formation [1]: equally effective
- PDGFBB stimulated ppERK1 formation [2]: no effect
- RV end systolic pressure (rat MCT model; 8 min inhalation 3x/day, two weeks): 31.8±1.8 mm Hg
- efficacy in the MCT model, in words (rat MCT model; given by inhalation): equally effective
- PDGFBB stimulated AKT phosphorylation (SER473) [3]: blocked
- phosphorylation of AKT at Thr308 (AKT phosphorylation): no effect

Structure (SMILES): COc1cc(-c2cncc(N[C@@H](C)c3cccc(NC(=O)c4cnc(C#N)nc4)c3)n2)ccc1O [PK10467]
- IC50 for inhibiting PDGFBB stimulated AKT phosphorylation, compared to imatinib [4]: lower IC50 concentrations compared to imatinib

Structure (SMILES): C=CS(=O)(=O)NCc1ccc(C(=O)Nc2cccc([C@H](C)Nc3cncc(-c4ccc(O)c(OC)c4)n3)c2)cc1 [PK10468]
- IC50 for inhibiting PDGFBB stimulated AKT phosphorylation, compared to imatinib [4]: lower IC50 concentrations compared to imatinib

Structure (SMILES): COc1cc(-c2cncc(N[C@@H](C)c3cccc(NC(=O)c4cncc(C)c4)c3)n2)ccc1C [PK10569]
- IC50 for inhibiting PDGFBB stimulated AKT phosphorylation, compared to imatinib [4]: lower IC50 concentrations compared to imatinib

Structure (SMILES): COc1ccc(-c2cncc(N[C@@H](C)c3cccc(NC(=O)c4cncc(C)c4)c3)n2)cc1OC [PK10571]
- IC50 for inhibiting PDGFBB stimulated AKT phosphorylation, compared to imatinib [4]: lower IC50 concentrations compared to imatinib
- decreasing PDGF AA stimulated ppERK1 and ppERK2 formation [1]: equally effective
- PDGFBB stimulated ppERK1 formation [2]: effective
- decreasing PDGF BB stimulated ppERK1 and ppERK2, compared to imatinib ([2]; 1 uM and 10 uM): more effective
- ratio diphosphorylated ERK2 to total ERK2 (ppERK2/ERK2) ([2]; PDGFAA or PDGFBB stimulation (10 ng/ml), 1 uM and 10 uM): significantly decreased
- ratio diphosphorylated ERK1 to total ERK1 (ppERK1/ERK1) ([2]; PDGFAA or PDGFBB stimulation, 1 μM and 10 μM): significantly decreased
